ChEMBL document CHEMBL1201862, “PubChem BioAssay data set” (2004)
The source made the active and inactive calls.

Assays:
[1] = molecular target: T1, Polyadenylate-binding protein 1 (Homo sapiens, UniProt P11940); test: PABP inhibition in translation initiation, SAR follow-up (AID 435018); format: functional
[2] = molecular target: DNA dC->dU-editing enzyme APOBEC-3A (Homo sapiens, UniProt P31941); test: Dose Response confirmation of small molecule APOBEC3A DNA Deaminase Inhibitors via a fluorescence-based single-stranded DNA deaminase assay. [Related pubchem assays (depositor defined):AID493011, AID493024]; format: functional
DNA dC->dU-editing enzyme APOBEC-3A, sequence (P31941 whole entry): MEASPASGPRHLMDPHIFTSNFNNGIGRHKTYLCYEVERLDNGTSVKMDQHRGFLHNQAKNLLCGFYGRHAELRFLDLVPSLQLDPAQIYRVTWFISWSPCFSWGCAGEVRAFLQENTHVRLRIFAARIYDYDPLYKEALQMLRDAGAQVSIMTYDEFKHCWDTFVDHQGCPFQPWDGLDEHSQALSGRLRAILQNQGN

[3] = molecular target: T2, Eukaryotic translation initiation factor 4H (Homo sapiens, UniProt Q15056); test: eIF4H inhibition in translation initiation, SAR follow-up (AID 435011); format: functional
[4] = molecular target: DNA dC->dU-editing enzyme APOBEC-3G (Homo sapiens, UniProt Q9HC16); format: functional;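 note: Dose-response counterscreen measuring inhibition of APOBEC3G DNA deaminase activity, run while confirming APOBEC3A inhibitors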
DNA dC->dU-editing enzyme APOBEC-3G, sequence (Q9HC16 whole entry): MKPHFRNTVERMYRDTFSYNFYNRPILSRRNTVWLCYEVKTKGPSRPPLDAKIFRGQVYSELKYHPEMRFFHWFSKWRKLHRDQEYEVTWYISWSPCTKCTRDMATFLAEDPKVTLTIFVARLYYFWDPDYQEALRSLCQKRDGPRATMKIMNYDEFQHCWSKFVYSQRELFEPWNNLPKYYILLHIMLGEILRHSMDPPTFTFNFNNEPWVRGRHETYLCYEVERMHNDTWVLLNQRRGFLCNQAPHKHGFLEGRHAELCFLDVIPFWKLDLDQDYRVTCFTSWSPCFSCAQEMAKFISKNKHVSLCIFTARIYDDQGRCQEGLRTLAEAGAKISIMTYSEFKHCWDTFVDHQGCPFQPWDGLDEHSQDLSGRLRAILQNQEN

[5] = molecular target: T2, Eukaryotic translation initiation factor 4H; test: human eIF4H binding inhibitors, primary screen, translation initiation inhibitor project, biochemical, uHTS, fluorescence polarization (AID 2012)
[6] = molecular target: T1, Polyadenylate-binding protein 1; test: PABP poly(A) RNA binding inhibitors, primary screen, biochemical, fluorescence polarization, uHTS (AID 2014)
[7] = HepG2 cell cytotoxicity, dose response, cytotoxicity control for Shn3 inhibitor project, CellTiter-Glo, cherry-picked (AID 624134); format: functional, cell-based
[8] = molecular target: T3, Alkaline phosphatase, tissue-nonspecific isozyme (Homo sapiens, UniProt P05186)
T3 sequence (P05186 whole entry): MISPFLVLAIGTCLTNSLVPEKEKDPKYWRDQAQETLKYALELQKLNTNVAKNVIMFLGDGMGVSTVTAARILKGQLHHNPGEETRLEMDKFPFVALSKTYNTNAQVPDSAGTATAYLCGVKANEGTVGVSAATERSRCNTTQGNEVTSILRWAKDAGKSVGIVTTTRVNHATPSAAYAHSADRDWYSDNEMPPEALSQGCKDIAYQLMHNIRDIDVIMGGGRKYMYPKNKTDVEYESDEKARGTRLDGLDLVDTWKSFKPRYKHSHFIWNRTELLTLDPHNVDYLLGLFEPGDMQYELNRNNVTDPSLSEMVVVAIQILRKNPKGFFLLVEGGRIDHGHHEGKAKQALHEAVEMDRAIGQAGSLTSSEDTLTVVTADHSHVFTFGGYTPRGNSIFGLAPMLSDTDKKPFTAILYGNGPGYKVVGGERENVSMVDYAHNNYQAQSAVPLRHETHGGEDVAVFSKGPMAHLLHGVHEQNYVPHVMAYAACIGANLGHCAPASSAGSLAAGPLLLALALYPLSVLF

[9] = molecular target: Intestinal-type alkaline phosphatase (Mus musculus, UniProt P24822); test: PubChem AID 488785; format: functional
Intestinal-type alkaline phosphatase (Mus musculus, UniProt P24822), sequence (P24822 whole entry): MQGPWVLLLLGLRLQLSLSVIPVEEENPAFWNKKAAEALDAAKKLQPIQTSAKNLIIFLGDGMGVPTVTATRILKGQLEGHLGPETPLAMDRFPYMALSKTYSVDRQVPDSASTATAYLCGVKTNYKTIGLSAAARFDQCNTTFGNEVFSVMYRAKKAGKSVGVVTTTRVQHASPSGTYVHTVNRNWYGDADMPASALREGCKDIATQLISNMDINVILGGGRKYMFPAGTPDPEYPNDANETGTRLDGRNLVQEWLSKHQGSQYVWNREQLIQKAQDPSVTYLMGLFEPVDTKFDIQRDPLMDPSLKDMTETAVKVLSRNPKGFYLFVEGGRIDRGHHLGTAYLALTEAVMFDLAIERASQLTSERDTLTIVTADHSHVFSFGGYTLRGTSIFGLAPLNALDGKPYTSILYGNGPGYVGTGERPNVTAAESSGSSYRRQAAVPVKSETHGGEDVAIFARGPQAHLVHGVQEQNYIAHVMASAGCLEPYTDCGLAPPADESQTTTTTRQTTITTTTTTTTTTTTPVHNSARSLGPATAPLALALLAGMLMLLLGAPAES

[10] = molecular target: T3, Alkaline phosphatase, tissue-nonspecific isozyme; test: TNAP enzyme inhibition by screening hits, dose response, selectivity assay for mouse IAP inhibitor project, biochemical, human TNAP, uHTS hits (AID 488906); format: functional
[11] = molecular target: Intestinal-type alkaline phosphatase (Homo sapiens, UniProt P09923); test: inhibition of human intestinal alkaline phosphatase – biochemical, dose response (AID 488876); format: functional
Intestinal-type alkaline phosphatase (Homo sapiens, UniProt P09923), sequence (P09923 whole entry): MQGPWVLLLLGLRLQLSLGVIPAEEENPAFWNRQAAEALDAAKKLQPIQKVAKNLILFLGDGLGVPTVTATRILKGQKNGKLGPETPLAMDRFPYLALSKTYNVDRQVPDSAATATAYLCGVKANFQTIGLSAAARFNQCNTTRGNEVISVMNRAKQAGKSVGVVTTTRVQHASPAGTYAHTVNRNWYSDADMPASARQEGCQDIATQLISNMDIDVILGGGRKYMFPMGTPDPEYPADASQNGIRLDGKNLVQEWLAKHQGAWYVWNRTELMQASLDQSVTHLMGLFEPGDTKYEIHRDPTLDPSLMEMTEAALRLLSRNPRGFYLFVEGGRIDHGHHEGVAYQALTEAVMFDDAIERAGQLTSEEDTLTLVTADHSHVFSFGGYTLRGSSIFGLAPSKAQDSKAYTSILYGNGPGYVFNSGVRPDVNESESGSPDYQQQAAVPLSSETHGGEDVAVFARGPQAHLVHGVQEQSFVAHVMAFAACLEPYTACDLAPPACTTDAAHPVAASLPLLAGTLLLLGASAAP

[12] = Shn3 3'UTR reporter inhibitors, dose response, cell-based, Clone20 osteoblasts, firefly luciferase, cherry-picked (AID 624132); format: functional;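 note: firefly luciferase luminescence from reporter carrying the Shn3 3'UTR in osteoblasts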
[13] = control 3'UTR Renilla luciferase suppression, dose response, counter-screen for Shn3 inhibitor project, cell-based, Clone20-Shn3RL, cherry-picked (AID 624133); format: functional
ORF 73 = molecular target: T4, ORF 73 (Human herpesvirus 8, UniProt O40947); test: inhibitors of C-LANA binding to LBS DNA, dose response, biochemical, fluorescence polarization, cherry-picked samples (AID 504725); parameters: species or system Human gammaherpesvirus 8;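 note: fluorescence polarization of a labeled DNA duplex reporting LANA DNA binding; potency is for inhibitors that block LANA binding to the DNA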
T4 sequence (O40947 whole entry): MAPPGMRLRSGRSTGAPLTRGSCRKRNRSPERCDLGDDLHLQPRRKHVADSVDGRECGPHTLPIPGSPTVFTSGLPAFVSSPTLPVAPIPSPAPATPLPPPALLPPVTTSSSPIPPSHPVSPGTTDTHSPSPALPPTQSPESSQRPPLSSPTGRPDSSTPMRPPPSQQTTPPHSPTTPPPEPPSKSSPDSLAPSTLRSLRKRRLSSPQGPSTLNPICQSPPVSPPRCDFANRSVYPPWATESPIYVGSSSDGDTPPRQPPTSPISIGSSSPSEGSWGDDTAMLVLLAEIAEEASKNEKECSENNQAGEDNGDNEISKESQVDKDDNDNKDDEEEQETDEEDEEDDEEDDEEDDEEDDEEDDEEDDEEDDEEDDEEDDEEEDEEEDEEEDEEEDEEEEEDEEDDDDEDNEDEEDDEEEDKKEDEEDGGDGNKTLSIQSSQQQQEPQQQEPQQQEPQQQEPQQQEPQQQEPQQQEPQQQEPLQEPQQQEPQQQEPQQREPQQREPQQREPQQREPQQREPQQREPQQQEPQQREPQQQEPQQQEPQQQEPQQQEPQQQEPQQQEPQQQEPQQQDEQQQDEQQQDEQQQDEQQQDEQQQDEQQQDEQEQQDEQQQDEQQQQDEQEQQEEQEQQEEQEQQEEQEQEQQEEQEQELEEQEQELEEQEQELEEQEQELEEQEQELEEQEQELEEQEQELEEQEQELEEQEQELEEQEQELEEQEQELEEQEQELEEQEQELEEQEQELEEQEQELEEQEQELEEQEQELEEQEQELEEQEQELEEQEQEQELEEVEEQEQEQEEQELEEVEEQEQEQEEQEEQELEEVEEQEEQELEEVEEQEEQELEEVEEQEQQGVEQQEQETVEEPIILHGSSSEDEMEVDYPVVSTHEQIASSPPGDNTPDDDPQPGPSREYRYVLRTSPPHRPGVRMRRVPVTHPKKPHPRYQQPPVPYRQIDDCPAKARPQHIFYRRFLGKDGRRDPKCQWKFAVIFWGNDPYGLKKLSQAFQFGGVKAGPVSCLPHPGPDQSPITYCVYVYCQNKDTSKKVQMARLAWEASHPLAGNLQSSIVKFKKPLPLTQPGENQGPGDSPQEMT

[14] = molecular target: Bifunctional protein GlmU (Mycobacterium tuberculosis, UniProt P9WMN3); test: Inhibitors of Mycobacterial Glucosamine-1-phosphate acetyl transferase (GlmU). Secondary screen.; parameters: species or system Mycobacterium tuberculosis H37Rv
Bifunctional protein GlmU, sequence (P9WMN3 whole entry): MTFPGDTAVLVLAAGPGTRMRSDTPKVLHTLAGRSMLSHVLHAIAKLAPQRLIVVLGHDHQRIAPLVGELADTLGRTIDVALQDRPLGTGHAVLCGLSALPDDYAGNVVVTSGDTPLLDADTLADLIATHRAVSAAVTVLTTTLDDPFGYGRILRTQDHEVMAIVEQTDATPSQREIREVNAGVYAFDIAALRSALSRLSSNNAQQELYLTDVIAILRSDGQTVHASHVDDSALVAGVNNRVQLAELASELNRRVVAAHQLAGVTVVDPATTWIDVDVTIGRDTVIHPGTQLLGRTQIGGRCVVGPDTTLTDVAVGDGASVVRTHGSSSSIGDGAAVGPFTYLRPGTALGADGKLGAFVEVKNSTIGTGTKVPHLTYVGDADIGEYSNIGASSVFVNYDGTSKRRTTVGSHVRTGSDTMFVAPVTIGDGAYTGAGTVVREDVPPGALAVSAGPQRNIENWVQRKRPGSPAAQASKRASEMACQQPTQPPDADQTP

[15] = molecular target: DNA (cytosine-5)-methyltransferase 1 (Homo sapiens, UniProt P26358); test: DNMT1 methyltransferase inhibitors, confirmation, biochemical, fluorescent molecular beacon (AID 602386); format: functional
[16] = molecular target: T5, Long-chain-fatty-acid--AMP ligase FadD28 (Mycobacterium tuberculosis, UniProt P9WQ59); test: Fluorescence polarization aasay to screen for inhibitors that compete for the binding of FadD28 to a bisubstrate Measured in Biochemical System Using Plate Reader - 2147-01_Inhibitor_Dose_CherryPick_Activity.; format: functional, Mycobacterium tuberculosis H37Rv
T5 sequence (P9WQ59 whole entry): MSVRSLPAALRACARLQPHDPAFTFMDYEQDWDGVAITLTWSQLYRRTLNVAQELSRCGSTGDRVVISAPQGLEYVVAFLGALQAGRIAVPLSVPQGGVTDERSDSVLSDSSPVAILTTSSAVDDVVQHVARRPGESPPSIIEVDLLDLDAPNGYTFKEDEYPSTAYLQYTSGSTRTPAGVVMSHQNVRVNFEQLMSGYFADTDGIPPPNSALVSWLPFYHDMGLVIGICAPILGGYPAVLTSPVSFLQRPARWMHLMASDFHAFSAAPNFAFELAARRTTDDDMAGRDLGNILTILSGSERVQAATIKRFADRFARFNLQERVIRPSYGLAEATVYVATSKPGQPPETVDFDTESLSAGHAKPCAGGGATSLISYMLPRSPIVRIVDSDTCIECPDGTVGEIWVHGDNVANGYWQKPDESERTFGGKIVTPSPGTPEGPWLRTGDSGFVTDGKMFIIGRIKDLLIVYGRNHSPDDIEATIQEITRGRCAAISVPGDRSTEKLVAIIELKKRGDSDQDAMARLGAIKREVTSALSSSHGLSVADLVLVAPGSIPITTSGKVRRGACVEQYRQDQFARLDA

[17] = molecular target: T6, Histone-lysine N-methyltransferase NSD2 (Homo sapiens, UniProt O96028); format: biochemical
T6 sequence (O96028 whole entry): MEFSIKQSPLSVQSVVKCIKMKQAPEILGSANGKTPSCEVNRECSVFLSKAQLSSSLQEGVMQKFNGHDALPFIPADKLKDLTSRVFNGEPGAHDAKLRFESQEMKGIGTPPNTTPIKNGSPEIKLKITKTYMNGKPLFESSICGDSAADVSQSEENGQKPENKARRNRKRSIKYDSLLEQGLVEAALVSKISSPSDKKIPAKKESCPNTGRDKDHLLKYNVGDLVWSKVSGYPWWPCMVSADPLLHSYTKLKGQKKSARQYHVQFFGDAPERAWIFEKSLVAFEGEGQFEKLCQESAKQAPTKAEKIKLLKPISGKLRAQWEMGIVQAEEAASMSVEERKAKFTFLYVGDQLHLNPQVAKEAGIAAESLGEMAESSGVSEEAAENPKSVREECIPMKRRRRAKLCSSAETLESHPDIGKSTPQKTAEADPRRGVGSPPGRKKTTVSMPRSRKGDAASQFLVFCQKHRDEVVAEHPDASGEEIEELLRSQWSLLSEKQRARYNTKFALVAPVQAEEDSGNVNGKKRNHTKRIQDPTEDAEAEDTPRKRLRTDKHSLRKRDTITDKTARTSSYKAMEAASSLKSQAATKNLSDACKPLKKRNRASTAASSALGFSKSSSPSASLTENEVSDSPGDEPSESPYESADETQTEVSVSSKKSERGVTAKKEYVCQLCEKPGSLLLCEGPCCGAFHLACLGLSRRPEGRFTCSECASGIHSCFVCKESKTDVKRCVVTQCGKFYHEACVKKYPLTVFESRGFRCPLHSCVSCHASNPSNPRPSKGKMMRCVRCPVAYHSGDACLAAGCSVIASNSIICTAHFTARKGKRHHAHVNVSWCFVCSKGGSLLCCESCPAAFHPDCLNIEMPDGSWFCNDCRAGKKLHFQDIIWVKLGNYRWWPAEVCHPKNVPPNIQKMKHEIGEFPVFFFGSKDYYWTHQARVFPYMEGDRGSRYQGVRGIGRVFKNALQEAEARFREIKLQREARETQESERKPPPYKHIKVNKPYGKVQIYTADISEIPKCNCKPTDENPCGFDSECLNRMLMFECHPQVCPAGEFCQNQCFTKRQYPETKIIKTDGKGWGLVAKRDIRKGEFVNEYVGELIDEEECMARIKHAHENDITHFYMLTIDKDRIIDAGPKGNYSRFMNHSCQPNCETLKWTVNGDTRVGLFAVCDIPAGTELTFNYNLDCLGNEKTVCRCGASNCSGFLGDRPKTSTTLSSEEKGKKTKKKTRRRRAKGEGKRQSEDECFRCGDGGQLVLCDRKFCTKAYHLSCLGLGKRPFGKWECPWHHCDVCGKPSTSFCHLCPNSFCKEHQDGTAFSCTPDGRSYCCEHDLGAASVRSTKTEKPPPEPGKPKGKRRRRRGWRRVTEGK

Leucine aminopeptidase = Leucine aminopeptidase (Plasmodium falciparum 3D7, UniProt Q8IL11); test: P. falciparum M17LAP inhibitors, primary screen, biochemical, fluorogenic H-Leu-NHMec substrate, 1536-well (AID 1619); format: functional
Leucine aminopeptidase, sequence (Q8IL11 whole entry, the tested form may be a part): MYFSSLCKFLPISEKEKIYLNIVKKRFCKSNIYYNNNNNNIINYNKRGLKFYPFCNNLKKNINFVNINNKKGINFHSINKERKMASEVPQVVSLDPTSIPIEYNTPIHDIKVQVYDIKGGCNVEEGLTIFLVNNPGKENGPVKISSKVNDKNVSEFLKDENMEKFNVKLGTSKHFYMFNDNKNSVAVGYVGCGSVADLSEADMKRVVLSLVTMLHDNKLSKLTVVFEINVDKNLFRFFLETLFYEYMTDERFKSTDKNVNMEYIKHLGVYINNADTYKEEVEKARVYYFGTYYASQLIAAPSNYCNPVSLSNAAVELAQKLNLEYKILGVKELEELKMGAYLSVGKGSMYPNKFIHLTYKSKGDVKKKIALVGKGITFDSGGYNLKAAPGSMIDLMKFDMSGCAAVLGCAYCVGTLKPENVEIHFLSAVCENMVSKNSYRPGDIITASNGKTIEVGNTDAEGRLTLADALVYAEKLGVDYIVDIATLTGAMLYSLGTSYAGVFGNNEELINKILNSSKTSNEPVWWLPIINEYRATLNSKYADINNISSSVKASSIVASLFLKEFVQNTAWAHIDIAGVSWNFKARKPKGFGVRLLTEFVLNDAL

[18] = molecular target: T7, Carboxy-terminal domain RNA polymerase II polypeptide A small phosphatase 1 (Homo sapiens, UniProt Q9GZU7); test: inhibitors of CTDSP1, concentration-response testing, biochemical assay, absorbance-based, actives from ultra-high-throughput screening (AID 540297); format: functional
T7 sequence (Q9GZU7 whole entry): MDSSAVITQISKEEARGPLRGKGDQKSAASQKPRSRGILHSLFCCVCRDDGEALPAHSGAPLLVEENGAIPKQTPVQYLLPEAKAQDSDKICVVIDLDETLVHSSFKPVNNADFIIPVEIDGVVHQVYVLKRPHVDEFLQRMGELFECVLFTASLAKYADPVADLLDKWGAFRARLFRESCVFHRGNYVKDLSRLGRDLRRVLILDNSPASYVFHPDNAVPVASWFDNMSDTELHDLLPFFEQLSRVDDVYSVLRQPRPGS

X-box-binding protein 1 = X-box-binding protein 1 (Homo sapiens, UniProt P17861); format: functional, Cricetulus griseus;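 note: confirmatory dose-response counter-screen serving a CHOP assay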
X-box-binding protein 1, sequence (P17861 whole entry): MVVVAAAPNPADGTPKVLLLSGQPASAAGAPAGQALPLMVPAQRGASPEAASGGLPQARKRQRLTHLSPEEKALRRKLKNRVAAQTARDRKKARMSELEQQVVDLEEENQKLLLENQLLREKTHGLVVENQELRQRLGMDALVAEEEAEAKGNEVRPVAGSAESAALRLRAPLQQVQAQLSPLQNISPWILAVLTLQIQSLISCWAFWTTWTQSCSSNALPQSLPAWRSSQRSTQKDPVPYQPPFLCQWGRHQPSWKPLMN

T1 sequence (P11940 whole entry): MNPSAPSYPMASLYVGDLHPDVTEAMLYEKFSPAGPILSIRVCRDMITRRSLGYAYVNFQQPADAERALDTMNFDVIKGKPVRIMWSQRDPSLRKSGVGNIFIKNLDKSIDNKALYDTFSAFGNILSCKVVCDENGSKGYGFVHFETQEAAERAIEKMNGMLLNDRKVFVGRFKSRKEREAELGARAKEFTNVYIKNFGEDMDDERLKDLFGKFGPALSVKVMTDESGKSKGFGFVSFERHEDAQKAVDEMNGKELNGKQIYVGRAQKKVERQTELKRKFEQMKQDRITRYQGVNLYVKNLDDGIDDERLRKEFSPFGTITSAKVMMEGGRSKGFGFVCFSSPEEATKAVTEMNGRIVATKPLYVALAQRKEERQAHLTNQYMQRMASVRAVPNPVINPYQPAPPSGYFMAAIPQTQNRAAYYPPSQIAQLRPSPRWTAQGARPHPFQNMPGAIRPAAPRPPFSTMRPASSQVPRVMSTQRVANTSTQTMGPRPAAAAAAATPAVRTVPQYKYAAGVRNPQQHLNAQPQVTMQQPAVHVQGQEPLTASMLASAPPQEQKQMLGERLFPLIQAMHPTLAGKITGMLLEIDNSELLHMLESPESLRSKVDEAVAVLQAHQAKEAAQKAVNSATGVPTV

SMILES: CCN1CCN(S(=O)(=O)c2ccc(Cl)c(C(=O)N(CC)CC(=O)Nc3ccc(OC)cc3)c2)CC1
- IC50 [1]: 4.68 µM (active)
- IC50 [2]: 3.4 µM (active)
- IC50 [3]: 21 µM (active)
- IC50 [4]: 3.43 µM (active)
- IC50 [5]: 85.9 µM (active)
- IC50 [6]: 3.26 µM (active)

SMILES: Cc1ccc(N=C(N)Nc2nc(C)cc(N3CCCCC3)n2)c(C)c1
- AC50 [7]: 5.74 µM (active)
- EC50 [8]: 71.7 µM (not active)
- IC50 [9]: 3.34 µM (active)
- IC50 [10]: 32.1 µM (active)
- IC50 [11]: 70.1 µM (active)
- AC50 [12]: 0.891 µM (active)
- AC50 [13]: 0.639 µM (active)

SMILES: Cc1cc(/C=C2\C(=O)NC(=O)N(Cc3ccccc3)C2=O)c(C)n1-c1ccc(Cl)c(C(=O)O)c1
- AC50 (ORF 73): 76.2 µM (active)
- IC50 [14]: 71.9 µM (active)
- IC50 [15]: 3.35 µM (active)
- AC50 [16]: 35.6 µM (active)
- AC50 [17]: 5.47 µM (active)
- IC50 (Leucine aminopeptidase): 72.7 µM (active)
- IC50 [18]: 1.02 µM (active)

SMILES: CC(C)CN=C(S)NNC(=O)c1ccc2c(c1)OCO2
- EC50 [8]: 40.7 µM (active)

SMILES: CC(=O)Nc1cccc(NC(=O)CSc2ccc(-c3ccco3)nn2)c1
- IC50 [1]: > 100 µM (inactive)
- IC50 [3]: 25 µM (active)
- IC50 [5]: 10.3 µM (active)
- IC50 [6]: 46.3 µM (active)

SMILES: Cc1ccc(/C=N/n2c(S)nnc2C2CCCCC2)s1
- Absolute IC50 (XBP1) (X-box-binding protein 1): 10 µM
